Measurements: patent US20220347299A1, “FLUORESCENT SYSTEMS FOR BIOLOGICAL IMAGING AND USES THEREOF” (LIGHTOX LIMITED, priority 2019, published 2022)

Tests used:
[1] = Peak absorption and fluorescence emission wavelengths in solvents; format: physicochemical; settings: for λem(max)/nm: 100 nM, excitation at peak of absorption; for λabs(max)/nm: 10 μM
Experimental: Peak absorption and fluorescence emission wavelengths of compounds 6, 7, 12, 13, 14, 15, 19, 23, 27, 30 and 34 were measured in a variety of solvents, and the results are shown in Table 1. Absorption measurements were recorded at a concentration of 10 μM, and emission measurements were recorded at a concentration of 100 nM. Emission spectra were recorded with excitation at the peak of absorption (S0→S1).

[2] = Photophysical comparison of para- and ortho-substituted compounds in chloroform; format: physicochemical; settings: for excitation by 405 nm violet excitation laser light source (absorption at this wavelength): Chloroform
Experimental: To compare the photophysical behaviour of para-substituted compounds of the invention with ortho-substituted compounds, compound 73 and reference compound 77 were synthesised in accordance with Example 1:
Solutions of compounds 73 and 77 were prepared at concentrations of 10 μM and 100 nM in chloroform. The absorption spectra of each compound (10 μM) was recorded using a CARY100 UV-Visible spectrometer, from 200-800 nm, and is shown in FIG. 3a after solvent background subtraction. […] Also shown in FIG. 3a is the approximate bandwidth of a 405 nm violet excitation laser light source that is commonplace on fluorescence microscopes used for cellular imaging studies.
To assess this effect and to compare the fluorescence emission properties of 73 and 77, solutions of both compounds in chloroform (100 nM) were excited at both 360 nm and 405 nm. At 360 nm excitation, 73 and 77 were excited with high efficiency since this wavelength is close to the absorption maxima of both compounds.
Both compounds were also excited at 405 nm to compare their respective suitabilities towards imaging using a typical fluorescence microscope.

CC(C)(C)OC(=O)/C=C/c1ccc(C#Cc2ccc(N3CCNCC3)cc2)s1 [Compound 27, tert-butyl (2E)-3-(5-{2-[4-(piperazin-1-yl)phenyl]ethynyl}thiophen-2-yl) prop-2-enoate]
λem(max)/nm ([1]; DCM): 524 nm | λabs(max)/nm ([1]; DCM): 371 nm | λem(max)/nm ([1]; Toluene): 493 nm | λabs(max)/nm ([1]; Toluene): 380 nm

O=C1/C(=C/c2ccc(C#Cc3ccc(N4CCNCC4)cc3)cc2)N=C(c2ccccc2)N1CCN1CCOCC1 [Compound 23, (4Z)-1-[2-(morpholin-4-yl)ethyl]-2-phenyl-4-[(4-{2-[4-(piperazin-1-yl)phenyl]ethynyl}phenyl)methylidene]-4,5-dihydro-1H-imidazol-5-one]
λem(max)/nm ([1]; Chloroform): 616 nm | λabs(max)/nm ([1]; Chloroform): 424 nm

COC(=O)/C=C/c1ccc(C#Cc2ccc(N3CCC3)cc2)cc1 [Compound 30, methyl (2E)-3-(4-{2-[4-(azetidin-1-yl)phenyl]ethynyl}phenyl)prop-2-enoate]
λem(max)/nm ([1]; Chloroform): 535 nm | λabs(max)/nm ([1]; Chloroform): 374 nm

COC(=O)/C=C/c1ccc(C#Cc2ccc(N3CCN(C)CC3)cc2)cn1 [Compound 73, methyl (2E)-3-(5-{2-[4-(4-methylpiperazin-1-yl)phenyl]ethynyl}pyridin-2-yl)prop-2-enoate]
excitation by 405 nm violet excitation laser light source (absorption at this wavelength) ([2]; 10 μM): capable of efficient excitation | fluorescence emission at 360 nm excitation, compared to the other compound ([2]; chloroform, 100 nM): substantially stronger fluorescence emission | fluorescence emission at 405 nm excitation ([2]; chloroform, 100 nM): of a similar intensity to excitation at 360 nm | shift of fluorescence emission compared to compound 77 ([2]; chloroform, 100 nM, 360 nm excitation): significant bathochromic shift

COC(=O)/C=C/c1ccc(C#Cc2ccccc2N2CCN(C)CC2)cn1 [Compound 77, methyl (2E)-3-(5-{2-[2-(4-methylpiperazin-1-yl)phenyl]ethynyl}pyridin-2-yl)prop-2-enoate, reference compound]
excitation by 405 nm violet excitation laser light source (absorption at this wavelength) ([2]; 10 μM): absorbed only very weakly | fluorescence emission at 405 nm excitation ([2]; chloroform, 100 nM): only very weak fluorescence emission | absorption spectrum, ortho-position 77 relative to para-position 73 ([2]; chloroform, 10 μM, 200-800 nm): substantial hypsochromic shift and reduction in extinction coefficient

COCCN1C(=O)/C(=C/c2ccc(C#Cc3ccc(N4CCNCC4)cc3)cc2)N=C1C [Compound 19, (4Z)-1-(2-methoxyethyl)-2-methyl-4-[(4-{2-[4-(piperazin-1-yl)phenyl]ethynyl}phenyl)methylidene]-4,5-dihydro-1H-imidazol-5-one]
λem(max)/nm ([1]; Chloroform): 584 nm | λabs(max)/nm ([1]; Chloroform): 403 nm | λabs(max)/nm ([1]; MeOH): 395 nm | λem(max)/nm ([1]; Toluene): 515 nm | λabs(max)/nm ([1]; Toluene): 403 nm

NCCN1C(=O)/C(=C/c2ccc(C#Cc3ccc(N4CCC4)cc3)cc2)N=C1c1ccccc1 [Compound 34, (4Z)-1-(2-aminoethyl)-4-[(4-{2-[4-(azetidin-1-yl)phenyl]ethynyl}phenyl)methylidene]-2-phenyl-4,5-dihydro-1H-imidazol-5-one]
λem(max)/nm ([1]; Chloroform): 628 nm | λabs(max)/nm ([1]; Chloroform): 432 nm
